Data on 17 molecules can be found in US11142527B2, “Dihydropyrimidine compounds and uses thereof in medicine” (SUNSHINE LAKE PHARMA CO., LTD., priority 2017, dated 2021).

Each structure is given as a SMILES string. pEC50: −log10 of the molar value.

The test system of one series is HBV. In words: Test of anti HBV activity in vitro (viral DNA by qPCR). Conditions: Hepatitis B virus; HepG2.2.15 cells, viral DNA in cell culture supernatant by qPCR; read-out: EC50 values of the compound of the invention on viral replication. The format is cell-based. In outline: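 HepG2.2.15 cells (integrated HBV genome) were grown to confluence, then treated with compound in 4-fold dilutions from 4 μM final (0.5% DMSO). Secreted viral DNA in supernatant was quantified by SYBR qPCR against an HBV plasmid standard curve; EC50 from four-parameter nonlinear regression of concentration versus copy number.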
A general note: Quantitative PCR measures a nucleic acid by following its amplification.

Series [1] is described as follows: Cytotoxicity test with CellTiter Glo. It counts as cell-based. Conditions: human, HepG2.2.15 cells, highest concentration 150 μM, read-out: CC50 values of the compounds of the invention. On the procedure:
Test 2: Cytotoxicity and Selectivity Index
Methods of Testing Cytotoxicity and Selectivity Index
The serial diluted compound was added to a 384 wells plate at 50 μL HepG2.2.15 cell per well (3000 cells per well), the highest final concentration in the experiment is 150 μM (200 fold dilution). The plate was cultured at 37° C. in an incubator with CO2 for 4 days, and cytotoxicity of the compound was detected using CellTiter Glo agent.
The cytotoxicity of the compound was calculated using the following formulate, cytotoxicity (%)=100−(detection value/mean of DMSO control wells values×100) CC50 values were calculated by a four parametric nonlinear regression model using Graphpad Prism 5 software to manage concentration−cytotoxicity (%).
(In general: Cellular ATP, detected with luciferase, serves as a proxy for viable cell number.)

What is called pEC50 is the negative decadic logarithm of the EC50, by convention in mol/L. Usually CC50 stands for the concentration that lowers cell viability or growth by half. In the case of `COC(=O)C1=C(CN2CCN3C(=O)N(Cc4ccc(Oc5ccc(C#N)cc5)cc4)C[C@@H]3C2)NC(c2nccs2)=N[C@H]1c1ccc(F)cc1Cl` [Example 102, (R)-methyl 4-(2-chloro-4-fluorophenyl)-6-(((S)-2-(4-(4-cyanophenoxy)benzyl)-3-oxohexahydroimidazo[1,5-a]pyrazin-7(1H)-yl)methyl)-2-(thiazol-2-yl)-1,4-dihydropyrimidine-5-carboxylate], in the series on HBV, the pEC50 was 8.38. For the same molecule, the CC50 at 4 days in series [1] is more than 150 µM.
For `COC(=O)C1=C(CN2CCN3C(=O)N(c4nc(-c5ccc(CCC(=O)O)cc5)cs4)C[C@@H]3C2)NC(c2nccs2)=N[C@H]1c1ccc(F)cc1Cl` [Example 135, 3-(4-(2-((S)-7-(((R)-6-(2-chloro-4-fluorophenyl)-5-(methoxycarbonyl)-2-(thiazol-2-yl)-3,6-dihydropyrimidin-4-yl)methyl)-3-oxohexahydroimidazo[1,5-a]pyrazin-2(3H)-yl)thiazol-4-yl)phenyl)propanoic acid] the same measures were 8.19 and more than 150 µM.
For `COC(=O)C1=C(CN2CCN3C(=O)N(c4ccc(Oc5ccc(CO)cc5)cc4)C[C@@H]3C2)NC(c2nccs2)=N[C@H]1c1ccc(F)cc1Cl` [Example 99, (R)-methyl 4-(2-chloro-4-fluorophenyl)-6-(((S)-2-(4-(4-(hydroxymethyl)phenoxy)phenyl)-3-oxohexahydroimidazo[1,5-a]pyrazin-7(1H)-yl)methyl)-2-(thiazol-2-yl)-1,4-dihydropyrimidine-5-carboxylate], in the series on HBV, the pEC50 was 7.90. For the same molecule, the 50% cytotoxic concentration (CC50) at 4 days in series [1] is more than 150 µM.
For `COC(=O)C1=C(CN2CCN3C(=O)N(CC#Cc4ccc(C(C)(C)O)cc4)C[C@@H]3C2)NC(c2nccs2)=N[C@H]1c1ccc(F)cc1Cl` [Example 38, (R)-methyl 4-(2-chloro-4-fluorophenyl)-6-(((S)-2-(3-(4-(2-hydroxyprop-2-yl)phenyl)-2-propyn-1-yl)-3-oxohexahydroimidazo[1,5-a]pyrazin-7(1H)-yl)methyl)-2-(thiazol-2-yl)-1,4-dihydropyrimidine-5-carboxylate], in that order: 8.15 and more than 150 µM.
For `COC(=O)C1=C(CN2CCN3C(=O)N(c4cc(F)cc(-c5ccc(C(=O)O)cc5)c4)C[C@@H]3C2)NC(c2nccs2)=N[C@H]1c1ccc(F)cc1Cl` [Example 117, 3′-((S)-7-(((R)-6-(2-chloro-4-fluorophenyl)-5-(methoxycarbonyl)-2-(thiazol-2-yl)-3,6-dihydroprimidin-4-yl)methyl)-3-oxohexahydroimidazo[1,5-a]pyrazin-2(3H)-yl)-5′-fluoro-[1,1′-biphenyl]-4-carboxylic acid] the same measures were 7.73 and more than 150 µM.
As for `COC(=O)C1=C(CN2CCN3C(=O)N(c4ccc(-c5ccc(C(=O)O)cc5)nc4)C[C@@H]3C2)NC(c2nccs2)=N[C@H]1c1ccc(F)cc1Cl` [Example 122, 4-(5-((S)-7-(((R)-6-(2-chloro-4-fluorophenyl)-5-(methoxycarbonyl)-2-(thiazol-2-yl)-3,6-dihydropyrimidin-4-yl)methyl)-3-oxohexahydroimidazo[1,5-a]pyrazin-2(3H)-yl)pyridin-2-yl)benzoic acid], the pEC50 with HBV was 7.34. In series [1], the cytotoxic concentration (CC50) at 4 days was more than 150 µM.
For `COC(=O)C1=C(CN2CCN3C(=O)N(c4nc(-c5cccc(C(=O)O)c5)cs4)C[C@@H]3C2)NC(c2nccs2)=N[C@H]1c1ccc(F)cc1Cl` [Example 139, 3-(2-((S)-7-(((R)-6-(2-chloro-4-fluorophenyl)-5-(methoxycarbonyl)-2-(thiazol-2-yl)-3,6-dihydropyrimidin-4-yl)methyl)-3-oxohexahydroimidazo[1,5-a]pyrazin-2(3H)-yl)thiazol-4-yl)benzoic acid], in that order: 7.97 and more than 150 µM.
Regarding `COC(=O)C1=C(CN2CCN3C(=O)N(c4ccc(N5CCC(C(=O)O)CC5)cc4F)C[C@@H]3C2)NC(c2nccs2)=N[C@H]1c1ccc(F)cc1Cl` [Example 31, 1-(4-((S)-7-(((R)-6-(2-chloro-4-fluorophenyl)-5-(methoxycarbonyl)-2-(thiazol-2-yl)-3,6-dihydropyrimidin-4-yl)methyl)-3-oxohexahydroimidazo[1,5-a]pyrazin-2(3H)-yl)-3-fluorophenyl)piperidine-4-carboxylic acid], the pEC50 with HBV was 7.80. In addition, in series [1], the cytotoxic concentration (CC50) at 4 days was more than 150 µM.
For `COC(=O)C1=C(CN2CCN3C(=O)N(c4cc(F)cc(Oc5ccc(C(=O)O)cc5F)c4)C[C@@H]3C2)NC(c2nccs2)=N[C@H]1c1ccccc1Cl` [Example 93, 4-(3-((S)-7-(((R)-6-(2-chlorophenyl)-5-(methoxycarbonyl)-2-(thiazol-2-yl)-3,6-dihydropyrimidin-4-yl)methyl)-3-oxohexahydroimidazo[1,5-a]pyrazin-2(3H)-yl)-5-fluorophenoxy)-3-fluorobenzoic acid], in that order: 7.67 and more than 150 µM.
For `COC(=O)C1=C(CN2CCN3C(=O)N(c4ccc(N5CCOC(C(=O)O)C5)cc4)C[C@@H]3C2)NC(c2nccs2)=N[C@H]1c1ccc(F)cc1Cl` (stereo partly drawn) [Example 77, 4-(4-((S)-7-(((R)-6-(2-chloro-4-fluorophenyl)-5-(methoxycarbonyl)-2-(thiazol-2-yl)-3,6-dihydropyrimidin-4-yl)methyl)-3-oxohexahydroimidazo[1,5-a]pyrazin-2(3H)-yl)phenyl)morpholine-2-carboxylic acid], in that order: 8.01 and more than 150 µM.
For `COC(=O)C1=C(CN2CCN3C(=O)N(c4cc(F)cc(OC5CCC(C(=O)O)CC5)c4)C[C@@H]3C2)NC(c2nccs2)=N[C@H]1c1ccc(F)cc1Cl` (stereo partly drawn) [Example 23, 4-(3-((S)-7-(((R)-6-(2-chloro-4-fluorophenyl)-5-(methoxycarbonyl)-2-(thiazol-2-yl)-3,6-dihydropyrimidin-4-yl)methyl)-3-oxohexahydroimidazo[1,5-a]pyrazin-2(3H)-yl)-5-fluorophenoxy)cyclohexane carboxylic acid] the same measures were 8.15 and more than 150 µM.
Turning to `COC(=O)C1=C(CN2CCN3C(=O)N(c4ccc(Oc5ccc(C(=O)NCCCC(=O)N(C)C)cc5)cc4)C[C@@H]3C2)NC(c2nccs2)=N[C@H]1c1ccc(F)cc1Cl` [Example 71, (R)-methyl 4-(2-chloro-4-fluorophenyl)-6-(((S)-2-(4-(4-((4-(dimethylamino)-4-oxobutyl)carbamoyl)phenoxy)phenyl)-3-oxohexahydroimidazo[1,5-a]pyrazin-7(1H)-yl)methyl)-2-(thiazol-2-yl)-1,4-dihydropyrimidine-5-carboxylate], the negative logarithm of the EC50 (pEC50) in the series on HBV was 7.78. The cytotoxic concentration (CC50) at 4 days in series [1] was more than 150 µM.
On to `COC(=O)C1=C(CN2CCN3C(=O)N(CC#Cc4ccc(S(=O)(=O)N(C)C)cc4)C[C@@H]3C2)NC(c2nccs2)=N[C@H]1c1ccc(F)cc1Cl` [Example 43, (R)-methyl 4-(2-chloro-4-fluorophenyl)-6-(((S)-2-(3-(4-(N,N-dimethylaminosulfonyl)phenyl)prop-2-yn-1-yl)-3-oxohexahydroimidazo[1,5-a]pyrazin-7(1H)-yl)methyl)-2-(thiazol-2-yl)-1,4-dihydropyrimidine-5-carboxylate], for which, in the series with HBV, the pEC50 is 8.14. In series [1], the half-maximal cytotoxic concentration (CC50) at 4 days is more than 150 µM.
For `COCC(C)(C)NC(=O)c1ccc(Oc2ccc(N3C[C@@H]4CN(CC5=C(C(=O)OC)[C@H](c6ccc(F)cc6Cl)N=C(c6nccs6)N5)CCN4C3=O)cc2)cc1` [Example 70, (R)-methyl 4-(2-chloro-4-fluorophenyl)-6-(((S)-2-(4-(4-((1-methoxy-2-methylprop-2-yl)carbamoyl)phenoxy)phenyl)-3-oxohexahydroimidazo[1,5-a]pyrazin-7(1H)-yl)methyl)-2-(thiazol-2-yl)-1,4-dihydropyrimidine-5-carboxylate], the pEC50 in the series on HBV is 7.80. In addition, the CC50 at 4 days in series [1] was more than 150 µM.
For `COC(=O)C1=C(CN2CCN3C(=O)N(c4cc(F)cc(-c5ccc(C(=O)O)cc5F)c4)C[C@@H]3C2)NC(c2nccs2)=N[C@H]1c1ccc(F)cc1Cl` [Example 118, 3′-((S)-7-(((R)-6-(2-chloro-4-fluorophenyl)-5-(methoxycarbonyl)-2-(thiazol-2-yl)-3,6-dihydropyrimidin-4-yl)methyl)-3-oxohexahydroimidazo[1,5-a]pyrazin-2(3H)-yl)-2,5′-difluoro-[1,1′-biphenyl]-4-carboxylic acid] the same measures were 8.05 and more than 150 µM.
Take `COC(=O)C1=C(CN2CCN3C(=O)N(CC#Cc4ccc(C(=O)N(C)C)cc4)C[C@@H]3C2)NC(c2nccs2)=N[C@H]1c1ccc(F)cc1Cl` [Example 42, (R)-methyl 4-(2-chloro-4-fluorophenyl)-6-(((S)-2-(3-(4-(dimethylcarbamoyl)phenyl)prop-2-yn-1-yl)-3-oxohexahydroimidazo[1,5-a]pyrazin-7(1H)-yl)methyl)-2-(thiazol-2-yl)-1,4-dihydropyrimidine-5-carboxylate]: the pEC50 in the series with HBV was 8.10. Also, the CC50 at 4 days in series [1] is more than 150 µM.
For `COC(=O)C1=C(CN2CCN3C(=O)N(c4ccc(F)c(-c5ccc(C(=O)O)cc5)c4)C[C@@H]3C2)NC(c2nccs2)=N[C@H]1c1ccc(F)cc1Cl` [Example 114, 5′-((S)-7-(((R)-6-(2-chloro-4-fluorophenyl)-5-(methoxycarbonyl)-2-(thiazol-2-yl)-3,6-dihydropyrimidin-4-yl)methyl)-3-oxohexahydroimidazo[1,5-a]pyrazin-2(3H)-yl)-2′-fluoro-[1,1′-biphenyl]-4-carboxylic acid], in that order: 7.56 and more than 150 µM.
